Test results published in patent publication US20030027819A1, “Beta-sheet mimetics and methods relating to the use thereof” (Molecumetics Ltd., priority 1996, published 2003).
Where two headings read alike, the source gives them in different places. Blank lines part the entries; values can stand above or below the molecule they belong to.

Columns and labels:
[1] = tested on: TNF induced V-CAM expression in human umbilical vein entothelial cells (HUVEC); experiment: Inhibition of TNF induced V-CAM expression in HUVEC; assay type: cell-based
Procedure: Upon stimulation with inflammatory cytokines, HUVEC express cell surface adhesion molecules, including E-selectin, V-CAM, and I-CAM. Proteasome antagonists inhibit TNFα induced expression of these adhesion molecules, thereby providing a mechanism for regulating leucocyte adhesion and the inflammatory response.
More specifically, compounds (65), (68), (69) and (71) were assayed by the procedures set forth by Deisher, Kaushansky and Harlan (“Inhibitors of Topoisomerase II Prevent Cytokine-Induced Expression of Vascular Cell Adhesion Molecule-1, While Augmenting the Expression of Endothelial Leukocyte Adhesion Molecule-1 on Human Umbilical Vein Endothelial Cells,” Cell Adhesion Commun. 1:133-42, 1993) (incorporated herein by reference), with the exception that tetramethyl benzidine was used in place of o-phenylenediamine-peroxide.

thioredoxin = experiment: Insulin disulfide reduction by thioredoxin (turbidity at 650 nm); settings: 8 μM thioredoxin, 0-100 μM compound, 60 minutes
factor VII = factor VII (Homo sapiens, UniProt P08709); experiment: Factor VII inhibition assay (Ki, Example 5); assay type: biochemical
Procedure: (§1) The reaction progress curves were recorded by reading the plates, typically 60 times with 30 second to 2 minute intervals. Initial rates were determined by unweighted nonlinear least-squares fitting to a first order reaction in GraFit (Erithacus Software Limited, London, England).
From this concentration point seven more sequential dilutions were made for the assay.

factor X = factor X (Bos taurus, UniProt P00743); experiment: Factor X inhibition assay (Ki, Example 5), bovine plasma enzyme; assay type: biochemical; settings: bovine plasma enzyme (Example 5 protocol)
Procedure: as §1, with “The hydrolysis of chromogenic substrates was monitored at 405 nm. The” for “The”
Buffer and substrate were the same as used for thrombin assay. A 1:100 dilution was made in the pH8.0 tris buffer to serve as the first point. Seven more dilutions from the first were made for the assay.

trypsin = target: T1, trypsin (Bos taurus, UniProt P00760); experiment: Trypsin inhibition assay (Ki, Example 5); assay type: biochemical, bovine
T1 sequence (P00760 24-246): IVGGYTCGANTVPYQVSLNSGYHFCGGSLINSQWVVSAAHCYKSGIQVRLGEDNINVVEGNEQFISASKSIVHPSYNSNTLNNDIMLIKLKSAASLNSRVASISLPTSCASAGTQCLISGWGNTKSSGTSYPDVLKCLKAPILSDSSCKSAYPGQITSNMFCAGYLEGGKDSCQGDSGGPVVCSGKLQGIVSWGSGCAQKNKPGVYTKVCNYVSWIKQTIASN
Procedure: as §1

Factor XI = Factor XI (Homo sapiens, UniProt P03951); experiment: Factor XI inhibition assay (Ki, Example 8); assay type: biochemical
Procedure: as §1
Factor XI. The same buffer was utilized in this assay as in the thrombin assay. […] From this 100 μM solution, seven serial 1:5 dilutions were made in buffer for assay.

thrombin [2] = target: T2, thrombin (Bos taurus, UniProt P00735); experiment: Thrombin inhibition assay (Ki, Example 5); assay type: biochemical, bovine; set-up: thrombin; bovine plasma; 0.66; from tissue; host or cells: bovine plasma
Procedure: as §1
Seven sequential dilutions were made from the first point for the assay.

urokinase = urokinase (Homo sapiens, UniProt P00749); experiment: Urokinase inhibition assay (Ki, Example 5); assay type: biochemical
[3] = target: Tissue Plasminogen Activator (t-PA) (Homo sapiens, UniProt P00750); experiment: t-PA inhibition assay (Ki, Example 5); assay type: biochemical
Procedure: as §1

Plasmin = Plasmin (Bos taurus, UniProt P06868); experiment: Plasmin inhibition assay (Ki, Example 5); assay type: biochemical, bovine
Procedure: as §1

control plasma = experiment: Prothrombin time (PT) in control plasma; assay type: biochemical
Procedure: Then 200 μl of prewarmed (at 37° C. for ˜10 minutes) thromboplastin with calcium (from Sigma) was rapidly added into the plasma sample.

thrombin [4] = target: T2, thrombin; experiment: Thrombin inhibition by solid phase compounds of Tables 11-15; assay type: biochemical; set-up: 100 μl of 10 μM thrombin solution; settings: mixtures of diastereomers; read-out: Ki as thrombin inhibitors (mark at Cpd. No.)
Procedure: Following extensive washing with DMF, the resin was treated with the acid fluoride of N-Fmoc-4-aminomethylbenzoic acid, or (81), or (86) and Hunigs' base in DMF until the Kaiser test was negative. Alternatively, the Fmoc-protected thiazole-(75) or imidazole-based (77) linkers were coupled to the resin using BOP, HOBt and DIEA. In some instances Fmoc-Leu or another amino acid was attached to the resin prior to the thiazole-(75) or imidazole-based (77) linkers via the same methodology. […] Following washing with DMF a dienoic acid was coupled to the resin-bound linkers using PyBOP, HOBt and Hunigs' base in DMF until the result of a Kaiser test was negative. The cycloaddition was performed by pretreatment of a solution of a pyrazolidinedione (not shown) or urazole in DMF with a solution of [bis(trifluoroacetoxy)iodo]benzene in DMF. […] The resin was then washed with DMF and CH2Cl2. Oxidation to the ketoamide was effected by treatment of the resin with a solution of Dess-Martin periodinane in DMSO for 60 min. […] The supernatant was collected and the resin was washed with additional TFA. The combined filtrates were concentrated in vacuo. The residue was precipitated with diethyl ether and the ether was decanted. The resulting solid was reconstituted in 1:1 CH3CN:H2O and lyophilized. […] The compounds were assayed for inhibition of coagulation enzymes as mixtures of diastereomers.

[5] = Pharmacodynamic and pharmacokinetic study in rats; assay type: in vivo, male Sprague Dawley rats; settings: rat; for half-life: read-out: terminal halflife (converted)
Procedure: Specifically, a pharmacodynamic and pharmacokinetic study of structure (20b) was conducted in male Sprague Dawley rats. […] Groups of rats (n ═3 or 4) were sacrificed and exsanguinated at 0.25, 0.5, 1, 2, 4 and 8 hours following dosing. Efficacy parameters, aPTT and TT, were measured for each plasma sample.

Factor XI, sequence (P03951 388-625 limits assumed): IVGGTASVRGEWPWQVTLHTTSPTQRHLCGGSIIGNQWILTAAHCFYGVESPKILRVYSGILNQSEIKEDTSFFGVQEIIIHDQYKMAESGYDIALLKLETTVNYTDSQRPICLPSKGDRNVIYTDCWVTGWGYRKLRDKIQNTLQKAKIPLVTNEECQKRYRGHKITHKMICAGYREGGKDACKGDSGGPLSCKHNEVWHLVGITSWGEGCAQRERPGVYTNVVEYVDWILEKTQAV
Factor XI, sequence (P03951 19-387 limits assumed): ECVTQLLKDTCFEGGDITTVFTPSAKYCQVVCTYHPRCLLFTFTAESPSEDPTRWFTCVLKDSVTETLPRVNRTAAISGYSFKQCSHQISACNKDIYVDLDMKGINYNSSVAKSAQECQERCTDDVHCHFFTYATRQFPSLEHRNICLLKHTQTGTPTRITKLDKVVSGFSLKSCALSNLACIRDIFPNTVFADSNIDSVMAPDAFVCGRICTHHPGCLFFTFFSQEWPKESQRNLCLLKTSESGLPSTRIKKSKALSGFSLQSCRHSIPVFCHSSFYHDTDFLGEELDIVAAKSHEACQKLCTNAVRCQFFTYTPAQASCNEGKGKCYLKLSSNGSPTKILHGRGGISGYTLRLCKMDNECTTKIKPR
factor VII, sequence (P08709 213-466 limits assumed): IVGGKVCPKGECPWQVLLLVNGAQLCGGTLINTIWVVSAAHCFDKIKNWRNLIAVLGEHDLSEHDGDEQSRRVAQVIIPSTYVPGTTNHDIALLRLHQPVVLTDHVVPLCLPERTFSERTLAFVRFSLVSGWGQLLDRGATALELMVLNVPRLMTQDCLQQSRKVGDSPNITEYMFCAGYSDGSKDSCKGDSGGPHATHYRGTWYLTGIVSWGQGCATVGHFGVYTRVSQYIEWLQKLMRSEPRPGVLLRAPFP
factor VII, sequence (P08709 61-212 limits assumed): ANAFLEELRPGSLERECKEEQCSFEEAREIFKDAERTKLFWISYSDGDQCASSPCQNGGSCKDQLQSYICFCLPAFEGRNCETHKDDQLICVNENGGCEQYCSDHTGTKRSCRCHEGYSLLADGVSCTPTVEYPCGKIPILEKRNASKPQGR
factor VII, sequence (P13726 33-295 partner): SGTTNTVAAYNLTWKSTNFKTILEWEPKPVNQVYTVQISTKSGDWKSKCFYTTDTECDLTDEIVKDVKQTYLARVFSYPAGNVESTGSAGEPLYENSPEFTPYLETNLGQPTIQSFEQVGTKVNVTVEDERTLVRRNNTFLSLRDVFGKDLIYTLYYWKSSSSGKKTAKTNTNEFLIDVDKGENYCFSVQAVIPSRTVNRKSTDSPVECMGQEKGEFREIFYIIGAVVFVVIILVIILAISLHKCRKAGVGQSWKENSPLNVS
Plasmin, sequence (P06868 584-812 limits assumed): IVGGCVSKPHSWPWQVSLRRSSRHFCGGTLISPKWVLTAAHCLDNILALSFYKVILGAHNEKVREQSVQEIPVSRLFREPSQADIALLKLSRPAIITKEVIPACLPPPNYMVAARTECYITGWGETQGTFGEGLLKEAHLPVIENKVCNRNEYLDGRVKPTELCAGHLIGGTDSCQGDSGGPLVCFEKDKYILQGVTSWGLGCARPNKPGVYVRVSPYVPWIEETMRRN
Plasmin, sequence (P06868 104-583 limits assumed): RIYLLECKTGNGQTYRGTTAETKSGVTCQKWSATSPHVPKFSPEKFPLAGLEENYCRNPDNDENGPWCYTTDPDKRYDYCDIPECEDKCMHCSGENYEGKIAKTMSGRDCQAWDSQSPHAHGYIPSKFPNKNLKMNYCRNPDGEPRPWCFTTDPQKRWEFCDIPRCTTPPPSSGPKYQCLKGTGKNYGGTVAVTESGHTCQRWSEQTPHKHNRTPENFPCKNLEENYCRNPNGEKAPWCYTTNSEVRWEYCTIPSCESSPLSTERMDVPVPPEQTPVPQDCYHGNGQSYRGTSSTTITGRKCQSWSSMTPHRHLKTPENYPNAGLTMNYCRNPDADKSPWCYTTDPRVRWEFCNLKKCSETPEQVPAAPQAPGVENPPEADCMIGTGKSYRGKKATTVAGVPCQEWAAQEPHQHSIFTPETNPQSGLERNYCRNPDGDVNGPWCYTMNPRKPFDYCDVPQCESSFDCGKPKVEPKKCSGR
Tissue Plasminogen Activator (t-PA), sequence (P00750 36-562): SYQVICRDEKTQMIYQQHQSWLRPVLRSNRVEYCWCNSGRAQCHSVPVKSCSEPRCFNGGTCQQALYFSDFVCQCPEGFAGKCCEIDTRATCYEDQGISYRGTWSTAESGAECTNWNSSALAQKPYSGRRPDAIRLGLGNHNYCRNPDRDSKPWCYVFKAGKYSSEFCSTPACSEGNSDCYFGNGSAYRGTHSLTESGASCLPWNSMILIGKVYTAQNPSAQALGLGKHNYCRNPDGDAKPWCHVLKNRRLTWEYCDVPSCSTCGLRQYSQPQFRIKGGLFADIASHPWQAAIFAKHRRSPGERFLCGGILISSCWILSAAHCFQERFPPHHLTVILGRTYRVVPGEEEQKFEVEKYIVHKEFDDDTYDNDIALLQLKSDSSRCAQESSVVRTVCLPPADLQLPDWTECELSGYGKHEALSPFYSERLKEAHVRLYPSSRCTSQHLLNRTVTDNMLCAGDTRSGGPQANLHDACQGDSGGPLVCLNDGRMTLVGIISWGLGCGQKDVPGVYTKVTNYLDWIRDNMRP
factor X, sequence (P00743 234-492 limits assumed): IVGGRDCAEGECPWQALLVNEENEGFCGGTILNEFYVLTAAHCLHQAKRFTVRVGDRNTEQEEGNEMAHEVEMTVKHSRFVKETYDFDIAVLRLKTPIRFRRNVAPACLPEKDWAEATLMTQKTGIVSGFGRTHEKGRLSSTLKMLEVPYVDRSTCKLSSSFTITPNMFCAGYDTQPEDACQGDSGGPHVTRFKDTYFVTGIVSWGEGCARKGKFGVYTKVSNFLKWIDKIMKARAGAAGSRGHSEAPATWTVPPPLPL
factor X, sequence (P00743 41-180 limits assumed): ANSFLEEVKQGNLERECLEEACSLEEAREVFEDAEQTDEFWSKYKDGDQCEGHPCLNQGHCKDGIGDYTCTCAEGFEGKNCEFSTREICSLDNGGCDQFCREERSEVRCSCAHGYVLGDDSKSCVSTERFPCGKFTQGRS

Structure (SMILES): CC1C=CC(C=O)n2c(=O)n(-c3ccccc3)c(=O)n21 (stereo not drawn) [Structure 69]
IC50 [1]: 32.4 ± 1.7 µM

Structure (SMILES): COC(=O)C#CC(O)C1C=CC(C)n2c(=O)n(-c3ccccc3)c(=O)n21 (stereo not drawn) [Structure 231]
thioredoxin-induced turbidity of insulin at 650 nM (thioredoxin): turbidity decreases with increasing concentration

Structure (SMILES): COC(=O)/C=C/C(=O)C1C=CC(C)n2c(=O)n(-c3ccccc3)c(=O)n21 (stereo not drawn) [Structure 233]
thioredoxin-induced turbidity of insulin at 650 nM (thioredoxin): turbidity decreases with increasing concentration

Structure (SMILES): COC(=O)C#CC(O)c1cccc2c1C(=O)N(c1ccccc1)C2=O (stereo not drawn) [Structure 71]
IC50 [1]: 4.9 ± 0.18 µM

Structure (SMILES): CC1=C2[C@H]3OC(=O)[C@@H](C)[C@@H]3CC[C@@]2(C)C=CC1=O [Santonin, reference compound]
thioredoxin-induced turbidity of insulin at 650 nM (thioredoxin): did not block thioredoxin-induced turbidity of insulin

Structure (SMILES): N=C(N)NCCC[C@H](NC(=O)[C@@H]1CCN2CC[C@@](N)(Cc3ccccc3)C(=O)N12)C(=O)CCl [Structure 13b]
PT (control plasma; Concentration 1 pM): 13 s
PT (control plasma; Concentration 10 pM): 17 s
PT (control plasma; Concentration 50 pM): 18 s
PT (control plasma; Concentration 100 pM): 23 s
PT (control plasma; Concentration 200 pM): 24 s
PT (control plasma; Concentration 500 pM): 27 s
PT (control plasma; Concentration 1 nM): 30 s
PT (control plasma; Concentration 10 nM): 31 s
PT (control plasma; Concentration 30 nM): 31 s
PT (control plasma; Concentration 50 nM): 30 s
PT (control plasma; Concentration 80 nM): 33 s

Structure (SMILES): O=C(CCl)c1cccc2c1C(=O)N(c1ccccc1)C2=O [Structure 65]
IC50 [1]: 9.6 ± 0.1 µM

Structure (SMILES): O=C(CCl)C1CCCn2c(=O)n(-c3ccccc3)c(=O)n21 (stereo not drawn) [Structure 68]
IC50 [1]: 14.2 ± 0.8 µM

Now from value to molecule, other results behind:

Ki (factor VII): 1.8 µM
Ki (factor X): 4.6 µM
Ki (trypsin): 0.00054 µM
Ki (Factor XI): 0.391 µM
Ki (thrombin [2]): 0.0104 µM
Structure (SMILES): N=C(N)NCCC[C@H](NC(=O)[C@@H]1CC[C@@H]2CC[C@](N)(Cc3ccccc3)C(=O)N21)C(=O)c1nc2ccccc2s1 [Structure 29a]

Ki (factor VII): 0.27 µM
Ki (urokinase): 0.6 µM
Ki ([3]; read-out: Ki tPA (tissue Plasminogen Activator)): 0.495 µM
Ki (Plasmin): 0.415 µM
Ki (Factor XI): 0.027 µM
Structure (SMILES): N=C(N)NCCC[C@H](NC(=O)[C@@H]1CCN2CC[C@@](N)(Cc3ccccc3)C(=O)N12)C(=O)c1nc2ccccc2s1 [20^b]

Ki (thrombin [4]): < 0.01 µM
Structure (SMILES): COc1ccccc1-n1c(=O)n2n(c1=O)C(C(=O)NC(CCCCN)C(=O)C(=O)NCCc1ccc(C(N)=O)cc1)C=CC2CC(C)C (stereo not drawn) [Structure 114]

Ki (thrombin [4]): < 0.01 µM
Structure (SMILES): CC(Cn1c(=O)n2n(c1=O)C1CCCCC1=CC2C(=O)NC(CCCCN)C(=O)C(=O)NCCc1ccc(C(N)=O)cc1)c1ccccc1 (stereo not drawn) [Structure 121]

Ki (thrombin [4]): < 0.01 µM
Structure (SMILES): CC1=CC(C(=O)NC(CCCCN)C(=O)C(=O)NCCc2ccc(C(N)=O)cc2)n2c(=O)n(Cc3cccs3)c(=O)n2C1c1ccccc1 (stereo not drawn) [Structure 124]

Ki (thrombin [4]): < 0.01 µM
Structure (SMILES): CC(C)CC1C=CC(C(=O)NC(CCCCN)C(=O)C(=O)NCCc2ccc(C(N)=O)cc2)n2c(=O)n(Cc3cc(F)ccc3F)c(=O)n21 (stereo not drawn) [Structure 113]

Ki (factor VII): 0.27 µM
Ki (factor X): 0.966 µM
Ki (urokinase): 0.6 µM
Ki ([3]; read-out: Ki t-PA): 0.495 µM
Ki (Plasmin): 0.415 µM
Ki (Factor XI): 0.027 µM
half-life ([5]; male, Sprague Dawley, plasma, 4 mg/kg IV): 7.5 h
bioavailability ([5]; male, Sprague Dawley, plasma, 10 mg/kg PO vs 4 mg/kg IV, read-out: bioavailability of orally administered compound): ~27%
half-life ([5]; male, Sprague Dawley, plasma, 10 mg/kg PO): 4.5 h
Structure (SMILES): N=C(N)NCCC[C@H](NC(=O)[C@@H]1CCN2CC[C@@](N)(Cc3ccccc3)C(=O)N12)C(=O)c1nc2ccccc2s1 [Structure 20b]
Efficacy parameters aPTT and TT (FIGS. 4A and 4B) ([5]; 4 mg/kg IV and 10 mg/kg PO): in vivo efficacy

Ki (thrombin [4]): < 0.01 µM
Structure (SMILES): CC(C)(C)CC1C=CC(C(=O)NC(CCCCN)C(=O)C(=O)NCCc2ccc(C(N)=O)cc2)n2c(=O)n(Cc3cc(F)ccc3F)c(=O)n21 (stereo not drawn) [Structure 139]

Ki (thrombin [4]): < 0.01 µM
Structure (SMILES): CC(CC1C=CC(C(=O)NC(CCCCN)C(=O)C(=O)NCCc2ccc(C(N)=O)cc2)n2c(=O)n(Cc3ccc(C(F)(F)F)c(F)c3)c(=O)n21)CC(C)(C)C (stereo not drawn) [Structure 134]

Ki (thrombin [4]): < 0.01 µM
Structure (SMILES): CC(CC1C=CC(C(=O)NC(CCCCN)C(=O)C(=O)NCCc2ccc(C(N)=O)cc2)n2c(=O)n(C(c3ccccc3)c3ccccc3)c(=O)n21)CC(C)(C)C (stereo not drawn) [Structure 131]

Ki (thrombin [4]): < 0.01 µM
Structure (SMILES): CC(C)CC1C=CC(C(=O)NC(CCCCN)C(=O)C(=O)NCCc2ccc(C(N)=O)cc2)n2c(=O)n(Cc3cccs3)c(=O)n21 (stereo not drawn) [Structure 116]

Ki (thrombin [4]): < 0.01 µM
Structure (SMILES): CC1=CC(C(=O)NC(CCCCN)C(=O)C(=O)NCCc2ccc(C(N)=O)cc2)n2c(=O)n(CC(C)c3ccccc3)c(=O)n2C1c1ccccc1 (stereo not drawn) [Structure 123]

Ki (thrombin [4]): < 0.01 µM
Structure (SMILES): CC1=CC(C(=O)NC(CCCCN)C(=O)C(=O)NCCc2ccc(C(N)=O)cc2)N2C(=O)C(CC(C)C)(CC(C)C)C(=O)N2C1 (stereo not drawn) [Structure 188]
